One data set deals with Alternaria solani. Kind of data set: Activity against early blight of tomato caused by Alternaria solani. The class given is in vivo. The note with it: 250 ppm; tomato "Goldene Königin"; after 5 days; untreated 90% infected. On the procedure:
(§1) The active compounds were prepared separately as a stock solution with 25 mg of active compound which was made up to 10 ml with a mixture of acetone and/or DMSO and the emulsifier Uniperol® EL (wetting agent having emulsifying and dispersing action based on ethoxylated alkylphenols) in a volume ratio solvent/emulsifier of 99 to 1. The solution was then made up to 100 ml with water. This stock solution was diluted to the active compound concentration stated below using the solvent/emulsifier/water mixture described.
Activity Against Early Blight of Tomato Caused by Alternaria solani
Leaves of potted plants of the cultivar “Goldene Königin” were sprayed to runoff point with an aqueous suspension having the concentration of active compounds stated below. The next day, the leaves were inoculated with an aqueous spore suspension of Alternaria solani in 2% biomalt solution having a density of 0.17×10^6 spores/ml. The plants were then placed in a water-vapor-saturated chamber at temperatures of between 20 and 22° C. After 5 days, the disease on the leaves of the untreated, but infected control plants had developed to such an extent that the infection could be determined visually in %.

Another data set concerns Botrytis cinerea. Description: Activity against gray mold on bell pepper leaves caused by Botrytis cinerea, protective application. The class given is in vivo. To be noted: 250 ppm; bell pepper "Neusiedler Ideal Elite"; after 5 days; untreated 90% infected. On the procedure: as §1
Activity Against Gray Mold on Bell Pepper Leaves Caused by Botrytis cinerea, Protective Application
Bell pepper seedlings of the cultivar “Neusiedler Ideal Elite” were, after 2-3 leaves were well-developed, sprayed to runoff point with an aqueous suspension having the concentration of active compound stated below. The next day, the treated plants were inoculated with a spore suspension of Botrytis cinerea which contained 1.7×10^6 spores/ml in a 2% strength aqueous biomalt solution. The test plants were then placed in a dark climatized chamber at 22-24° C. and high atmospheric humidity. After 5 days, the extent of the fungal infection on the leaves could be determined visually in %.

A further data set deals with Pyrenophora teres. Kind of data set: Activity against net blotch of barley caused by Pyrenophora teres, 1 day protective application. The class given is in vivo, Pyrenophora [syn. Drechslera] teres. To be noted: 250 ppm; barley "Hanna"; after 6 days; untreated 90% infected. On the procedure: The active compounds were prepared separately as a stock solution with 25 mg of active compound which was made up to 10 ml with a mixture of acetone and/or DMSO and the emulsifier Uniperol® EL (wetting agent having emulsifying and dispersing action based on ethoxylated alkylphenols) in a volume ratio solvent/emulsifier of 99 to 1. The solution was then made up to 100 ml with water. This stock solution was diluted to the active compound concentration stated below using the solvent/emulsifier/water mixture described. Activity Against Net Blotch of Barley Caused by Pyrenophora teres, 1 Day Protective Application Leaves of potted barley seedlings of the cultivar “Hanna” were sprayed to runoff point with an aqueous suspension having the concentration of active compounds stated below. 24 hours after the spray coating had dried on, the test plants were inoculated with an aqueous spore suspension of Pyrenophora [syn. Drechslera] teres, the net blotch pathogen. The test plants were then placed in a greenhouse at temperatures between 20 and 24° C. and 95 to 100% relative atmospheric humidity. After 6 days, the extent of the development of the disease was determined visually in % infection of the entire leaf area.

These results are taken from patent publication US20080132522A1, “2-Substituted Pyrimidines, Method for Their Production and Their Use for Controlling Pathogenic Fungi” (BASF Aktiengesellschaft, priority 2004, published 2008).

What is called melting point is the temperature, or range, at which the solid turns liquid. The molecule `CC(C)Oc1nc(-n2cccn2)nc(Cl)c1-c1c(F)cc(F)cc1F` [1), 4-Chloro-6-isopropoxy-2-(pyrazol-1-yl)-5-(2,4,6-trifluorophenyl)pyrimidine] gave a melting point of 106 to 107 °C. Besides, in the data set with Alternaria solani, the “infection of treated leaf areas” value is recorded as “only little infection”. Moreover, the “infection of treated leaf areas” value with Botrytis cinerea is “only little infection”. Besides, the “infection of treated leaf areas” value in the data set with Pyrenophora teres was “only little infection”.

On to `CON=C(N)c1nc(Cl)c(-c2c(F)cc(F)cc2F)c(OC(C)C)n1` [3), O-Methyl (4-chloro-6-isopropoxy-5-(2,4,6-trifluorophenyl)pyrimidin-2-yl)carbamidoxime], for which the “infection of treated leaf areas” value in the data set with Alternaria solani, with Botrytis cinerea and in the data set with Pyrenophora teres was “only little infection” each time.

In the case of `CC(C)(C)Oc1nc(-c2ccccn2)nc(Cl)c1-c1c(F)cccc1Cl` [4)], the “infection of treated leaf areas” value in the data set with Alternaria solani, in the data set with Botrytis cinerea and in the data set on Pyrenophora teres was “only little infection” throughout.

In turn, `CC(C)Oc1nc(C#N)nc(Cl)c1-c1c(F)cc(F)cc1F` [5), 4-Chloro-2-cyano-6-isopropoxy-5-(2,4,6-trifluorophenyl)pyrimidine] registered a melting point of 32 °C.
